Common to all, as to format: cell-based
Experiment [1] relates to FRDA fibroblasts (Coriell GM04078). The experiment in a line: Rescue of BSO-stressed human dermal fibroblasts from Friedreich's ataxia patients (Calcein AM viability). As to conditions: FRDA fibroblasts stressed with 1 mM BSO, 48 h, Calcein AM fluorescence, read-out: protection against FRDA, EC50. How it is done: Test samples and solvent controls were tested for their ability to rescue FRDA fibroblasts stressed by addition of L-buthionine-(S,R)-sulfoximine (BSO), as described in Jauslin et al., Hum. Mol. Genet. 11(24):3055 (2002), Jauslin et al., FASEB J. 17:1972-4 (2003), and International Patent Application WO 2004/003565. […] This specific BSO-mediated cell death can be prevented by administration of antioxidants or molecules involved in the antioxidant pathway, such as alpha-tocopherol, selenium, or small molecule glutathione peroxidase mimetics. However, antioxidants differ in their potency, i.e. the concentration at which they are able to rescue BSO-stressed FRDA fibroblasts. MEM (a medium enriched in amino acids and vitamins, catalog no. 1-31F24-I) and Medium 199 (M199, catalog no. 1-21F22-I) with Earle's Balanced Salts, without phenol red, were purchased from Bioconcept. Fetal Calf Serum was obtained from PAA Laboratories. Basic fibroblast growth factor and epidermal growth factor were purchased from PeproTech. Penicillin-streptomycin-glutamine mix, L-buthionine (S,R)-sulfoximine, and insulin from bovine pancreas were purchased from Sigma. Calcein AM was purchased from Molecular Probes. Cell culture medium was made by combining 125 ml M199 EBS, 50 ml Fetal Calf Serum, 100 U/ml penicillin, 100 μg/ml streptomycin, 2 mM glutamine, 10 μg/ml insulin, 10 ng/ml EGF, and 10 ng/ml bFGF; MEM EBS was added to make the volume up to 500 ml. A 10 mM BSO solution was prepared by dissolving 444 mg BSO in 200 ml of medium with subsequent filter-sterilization. During the course of the experiments, this solution was stored at +4° C. The cells were obtained from the Coriell Cell Repositories (Camden, N.J.; repository number GM04078) and grown in 10 cm tissue culture plates. Every third day, they were split at a 1:3 ratio. The test samples were supplied in 1.5 ml glass vials. The compounds were diluted with DMSO, ethanol or PBS to result in a 5 mM stock solution. Once dissolved, they were stored at −20° C. Test samples were screened according to the following protocol: A culture with FRDA fibroblasts was started from a 1 ml vial with approximately 500,000 cells stored in liquid nitrogen. Cells were propagated in 10 cm cell culture dishes by splitting every third day in a ratio of 1:3 until nine plates were available. Once confluent, fibroblasts were harvested. For 54 micro titer plates (96 well-MTP) a total of 14.3 million cells (passage eight) were re-suspended in 480 ml medium, corresponding to 100 μL medium with 3,000 cells/well. The remaining cells were distributed in 10 cm cell culture plates (500,000 cells/plate) for propagation. The plates were incubated overnight at 37° C. in a atmosphere with 95% humidity and 5% CO2 to allow attachment of the cells to the culture plate. MTP medium (243 μL) was added to a well of the microtiter plate. The test compounds were unfrozen and 7.5 μL of a 5 mM stock solution was dissolved in the well containing 243 μL medium, resulting in a 150 μM master solution. Serial dilutions from the master solution were made. The period between the single dilution steps was kept as short as possible (generally less than 1 second). Plates were kept overnight in the cell culture incubator. The next day, 10 μL of a 10 mM BSO solution were added to the wells, resulting in a 1 mM final BSO concentration. Forty-eight hours later, three plates were examined under a phase-contrast microscope to verify that the cells in the 0% control (wells E1-H1) were clearly dead. The medium from all plates was discarded, and the remaining liquid was removed by gently tapping the plate inversed onto a paper towel. 100 μl of PBS containing 1.2 μM Calcein AM were then added to each well. The plates were incubated for 50-70 minutes at room temperature. After that time the PBS was discarded, the plate gently tapped on a paper towel and fluorescence (excitation/emission wavelengths of 485 nm and 525 nm, respectively) was read on a Gemini fluorescence reader. […]

Experiment [2] concerns Huntington's cells (Coriell GM 04281). In words: Rescue of fibroblasts from Huntington's patients from oxidative stress (screen as in Example A). As to conditions: Fibroblast, human dermal fibroblasts from Huntington's patients, read-out: protection against Huntington's, EC50. The procedure:
Compounds of the invention were tested using the screen as described in Example A, but substituting FRDA cells with Huntington's cells obtained from the Coriell Cell Repositories (Camden, N.J.; repository number GM 04281). The compounds were tested for their ability to rescue human dermal fibroblasts from Huntington's patients from oxidative stress.

The subject of experiment [3] is Leber's Hereditary Optic Neuropathy (LHON) cells (Coriell GM03858). In words: Rescue of fibroblasts from Leber's Hereditary Optic Neuropathy patients from oxidative stress (screen as in Example A). The settings on record: Fibroblast, human dermal fibroblasts from LHON patients, read-out: protection against LHON, EC50. How it is done:
Compounds of the invention were screened as described in Example A, but substituting FRDA cells with Leber's Hereditary Optic Neuropathy (LHON) cells obtained from the Coriell Cell Repositories (Camden, N.J.; repository number GM03858). The compounds were tested for their ability to rescue human dermal fibroblasts from LHON patients from oxidative stress.

Experiment [4] has as its system cells obtained from CoQ10 deficient patients harboring a CoQ2 mutation. The experiment in a line: Rescue of fibroblasts from CoQ10 deficient patients from oxidative stress (screen similar to Example A). The settings on record: Fibroblast, human dermal fibroblasts from CoQ10 deficient patients (CoQ2 mutation), read-out: protection against CoQ10 deficiency, EC50. The procedure:
Compounds of the invention were tested using a screen similar to the one described in Example A, but substituting FRDA cells with cells obtained from CoQ10 deficient patients harboring a CoQ2 mutation. The compounds were tested for their ability to rescue human dermal fibroblasts from CoQ10 deficient patients from oxidative stress.

Experiment [5] has as its system Parkinson's disease (PD) cells (Coriell AG20439). In words: Rescue of fibroblasts from Parkinson's disease patients from oxidative stress (screen as in Example A). The settings on record: Fibroblast, human dermal fibroblasts from Parkinson's disease patients, read-out: protection against PD, EC50. The procedure: Compounds of the invention were screened as described in Example A, but substituting FRDA cells with Parkinson's disease (PD) cells obtained from the Coriell Cell Repositories (Camden, N.J.; repository number AG20439). The compounds were tested for their ability to rescue human dermal fibroblasts from Parkinson's disease patients from oxidative stress.

Broadly, the EC50 is the midpoint of the concentration-response curve.

As for `COC1=C(OC)C(=O)c2ccccc2C1=O` [2,3-dimethoxynaphthalene-1,4-dione], the EC50 in experiment [1] was < 100 nM; in experiment [2] it was < 150 nM; in experiment [3], < 150 nM; in experiment [4] it was < 100 nM.
In the case of `CC1=C(C)C(=O)c2ccccc2C1=O` [2,3-dimethylnaphthalene-1,4-dione], the EC50 was < 100 nM in experiment [1]; < 150 nM in experiment [2]; < 150 nM in experiment [3]; < 200 nM in experiment [5]; < 100 nM in experiment [4].
Regarding `CCCCC1=C(C)C(=O)c2ccccc2C1=O` [2-butyl-3-methylnaphthalene-1,4-dione], the EC50 in experiment [1] was < 100 nM; in experiment [2], < 150 nM; in experiment [3], < 150 nM; in experiment [5], < 200 nM; in experiment [4], < 100 nM.
Consider `COC1=CC(=O)c2ccccc2C1=O` [2-methoxynaphthalene-1,4-dione], for which the EC50 is < 100 nM in experiment [1], < 150 nM in experiment [2], < 150 nM in experiment [3] and < 100 nM in experiment [4].
As to `CCCCCCC1=C(C)C(=O)c2ccccc2C1=O` [2-hexyl-3-methylnaphthalene-1,4-dione], the EC50 is < 100 nM in experiment [1]; < 150 nM in experiment [2]; < 150 nM in experiment [3]; < 200 nM in experiment [5]; < 100 nM in experiment [4].
For `O=C1C=CC(=O)c2ccccc21` [naphthalene-1,4-dione], the EC50 in experiment [1] is < 100 nM; in experiment [2] it was < 150 nM; in experiment [3], < 150 nM; in experiment [5] it was < 200 nM.

The values are drawn from patent US20130345312A1, “TREATMENT OF MITOCHONDRIAL DISEASES WITH NAPHTHOQUINONES” (priority 2010, published 2013).
